In US6096930A, “Herbicidal cyclohexane-1,3-dione derivatives and their preparation process” (Korea Research Institute of Chemical Technology, priority 1994, dated 2000):
Read-outs that look alike come from different tables or passages of the source.

Key:
Experiment in all cases: Herbicidal activity for paddy test
Format in all cases: in vivo
SAGPY = conditions: for pest or weed control at 2 g/ha: 0.002 kg/ha; for pest or weed control at 8 g/ha: 0.008 kg/ha; for pest or weed control at 31 g/ha: 0.031 kg/ha; for pest or weed control at 125 g/ha: 0.125 kg/ha; for pest or weed control at 500 g/ha: 0.500 kg/ha
Text: (§1) The sterilized sandy loam soil is filled in test pot having a surface area of 348 cm^2 for upland test conditions or 115 cm^2 for paddy test species were planted in furrows.
(§2) The herbicidal activity data were taken visually by percent control, wherein 0 signifies no herbicidal effect and 100 signifies complete kill.

ECHOR = conditions: for pest or weed control at 2 g/ha: 0.002 kg/ha; for pest or weed control at 8 g/ha: 0.008 kg/ha; for pest or weed control at 31 g/ha: 0.031 kg/ha; for pest or weed control at 125 g/ha: 0.125 kg/ha; for pest or weed control at 500 g/ha: 0.500 kg/ha
Text: as §1, §2

ORYSA = conditions: for plant injury at 2 g/ha: 0.002 kg/ha; for plant injury at 8 g/ha: 0.008 kg/ha; for plant injury at 31 g/ha: 0.031 kg/ha; for plant injury at 125 g/ha: 0.125 kg/ha; for plant injury at 500 g/ha: 0.500 kg/ha
Text: as §1, §2

SCPJU = conditions: for pest or weed control at 2 g/ha: 0.002 kg/ha; for pest or weed control at 8 g/ha: 0.008 kg/ha; for pest or weed control at 31 g/ha: 0.031 kg/ha; for pest or weed control at 125 g/ha: 0.125 kg/ha; for pest or weed control at 500 g/ha: 0.500 kg/ha
Text: as §1, §2

MOOVA = conditions: for pest or weed control at 2 g/ha: 0.002 kg/ha; for pest or weed control at 8 g/ha: 0.008 kg/ha; for pest or weed control at 31 g/ha: 0.031 kg/ha; for pest or weed control at 125 g/ha: 0.125 kg/ha; for pest or weed control at 500 g/ha: 0.500 kg/ha
Text: as §1, §2

[1] = 3 Leaf, read-out: Herbicidal activity, ORYSA (3 Leaf)
[2] = seed, read-out: Herbicidal activity, ORYSA (seed)

SMILES	pest or weed control at 2 g/ha (SAGPY) [%]	pest or weed control at 8 g/ha (SAGPY) [%]	pest or weed control at 31 g/ha (SAGPY) [%]	pest or weed control at 125 g/ha (SAGPY) [%]	pest or weed control at 500 g/ha (SAGPY) [%]	pest or weed control at 2 g/ha (ECHOR) [%]	pest or weed control at 8 g/ha (ECHOR) [%]	pest or weed control at 31 g/ha (ECHOR) [%]	pest or weed control at 125 g/ha (ECHOR) [%]	pest or weed control at 500 g/ha (ECHOR) [%]	plant injury at 2 g/ha (ORYSA; [1]) [%]	plant injury at 8 g/ha (ORYSA; [1]) [%]	plant injury at 31 g/ha (ORYSA; [1]) [%]	plant injury at 125 g/ha (ORYSA; [1]) [%]	plant injury at 500 g/ha (ORYSA; [1]) [%]	plant injury at 2 g/ha (ORYSA; [2]) [%]	plant injury at 8 g/ha (ORYSA; [2]) [%]	plant injury at 31 g/ha (ORYSA; [2]) [%]	plant injury at 125 g/ha (ORYSA; [2]) [%]	plant injury at 500 g/ha (ORYSA; [2]) [%]	further results
CCC(=NOC)C1=C(O)CC(c2c(C)c3c(c(C)c2Cl)CC(C)(C)C3)CC1=O (stereo not drawn) [Compound 21]	0	0	0	0	0	40	95	100	100	100	0	0	0	80	100	20	100	100	100	100	pest or weed control at 2 g/ha (SCPJU): 0%; pest or weed control at 8 g/ha (SCPJU): 0%; pest or weed control at 31 g/ha (SCPJU): 0%; pest or weed control at 125 g/ha (SCPJU): 0%; pest or weed control at 500 g/ha (SCPJU): 0%; pest or weed control at 2 g/ha (MOOVA): 0%; pest or weed control at 8 g/ha (MOOVA): 30%; pest or weed control at 31 g/ha (MOOVA): 50%; pest or weed control at 125 g/ha (MOOVA): 60%; pest or weed control at 500 g/ha (MOOVA): 70%
CCON=C(CC)C1=C(O)CC(c2c(C)c3c(c(C)c2Cl)CC(C)(C)C3)CC1=O (stereo not drawn) [Compound 22]	0	0	0	0	0	0	95	100	100	100	0	0	0	20	100	0	0	100	100	100	pest or weed control at 2 g/ha (SCPJU): 0%; pest or weed control at 8 g/ha (SCPJU): 0%; pest or weed control at 31 g/ha (SCPJU): 0%; pest or weed control at 125 g/ha (SCPJU): 0%; pest or weed control at 500 g/ha (SCPJU): 0%; pest or weed control at 2 g/ha (MOOVA): 0%; pest or weed control at 8 g/ha (MOOVA): 0%; pest or weed control at 31 g/ha (MOOVA): 0%; pest or weed control at 125 g/ha (MOOVA): 0%; pest or weed control at 500 g/ha (MOOVA): 60%
C=CCON=C(CC)C1=C(O)CC(c2c(C)c3c(c(C)c2Cl)CC(C)(C)C3)CC1=O (stereo not drawn) [Compound 23]	0	0	0	0	0	0	40	100	100	100	0	0	0	0	60	0	10	100	100	100	pest or weed control at 2 g/ha (SCPJU): 0%; pest or weed control at 8 g/ha (SCPJU): 0%; pest or weed control at 31 g/ha (SCPJU): 0%; pest or weed control at 125 g/ha (SCPJU): 0%; pest or weed control at 500 g/ha (SCPJU): 0%; pest or weed control at 2 g/ha (MOOVA): 0%; pest or weed control at 8 g/ha (MOOVA): 0%; pest or weed control at 31 g/ha (MOOVA): 0%; pest or weed control at 125 g/ha (MOOVA): 0%; pest or weed control at 500 g/ha (MOOVA): 0%
CCCC(=NOCC=CCl)C1=C(O)CC(c2c(C)c(C)c3c(c2C)CC(C)(CC)C3)CC1=O (stereo not drawn) [Compound 19]	0	0	0	0	0	0	50	80	100	100	0	0	0	0	0	0	0	0	0	30	pest or weed control at 2 g/ha (SCPJU): 0%; pest or weed control at 8 g/ha (SCPJU): 0%; pest or weed control at 31 g/ha (SCPJU): 0%; pest or weed control at 125 g/ha (SCPJU): 0%; pest or weed control at 500 g/ha (SCPJU): 0%; pest or weed control at 2 g/ha (MOOVA): 0%; pest or weed control at 8 g/ha (MOOVA): 0%; pest or weed control at 31 g/ha (MOOVA): 0%; pest or weed control at 125 g/ha (MOOVA): 0%; pest or weed control at 500 g/ha (MOOVA): 0%
C=CCON=C(CCC)C1=C(O)CC(c2c(C)c(C)c3c(c2C)CC(C)(C)C3)CC1=O (stereo not drawn) [Compound 8]	0	0	0	0	0	0	40	100	100	100	0	0	0	0	0	0	0	60	100	100	pest or weed control at 2 g/ha (SCPJU): 0%; pest or weed control at 8 g/ha (SCPJU): 0%; pest or weed control at 31 g/ha (SCPJU): 0%; pest or weed control at 125 g/ha (SCPJU): 0%; pest or weed control at 500 g/ha (SCPJU): 0%; pest or weed control at 2 g/ha (MOOVA): 0%; pest or weed control at 8 g/ha (MOOVA): 0%; pest or weed control at 31 g/ha (MOOVA): 0%; pest or weed control at 125 g/ha (MOOVA): 0%; pest or weed control at 500 g/ha (MOOVA): 0%
